Reference: patent EP4707280A1, “1,4-CINEOLE DERIVATIVE AND INTERMEDIATE THEREOF, HERBICIDE CONTAINING SAID DERIVATIVE AS ACTIVE INGREDIENT, METHOD FOR USING HERBICIDE, AND METHOD FOR PREPARING AGROCHEMICAL COMPOSITION” (HOKKO CHEMICAL INDUSTRY CO., LTD., priority 2023, dated 2024)

Legend:
Assay type in all cases: in vivo
Echinochloa crus-galli [1] = assay: Test Example 7: herbicidal effect test by soil application in upland field (low dose); conditions: Echinochloa crus-galli, 7.5 g per 10 ares, sprayed one day after sowing, 14 days after application, read-out: weed inhibition rate
Summary of the method: (§1)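 Read-out: weed inhibition rate (%) at 14 d post-treatment, duplicate pots per concentration. Seeds sown in the top 1 cm of upland alluvial loam; emulsifiable concentrate diluted in water and sprayed on the soil surface 1 d after sowing at 7.5 g a.i./10 a (100 L/10 a spray volume).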

Digitaria ciliaris [2] = assay: as above; conditions: Digitaria ciliaris, 7.5 g per 10 ares, sprayed one day after sowing, 14 days after application, read-out: weed inhibition rate
Summary of the method: as §1

Echinochloa crus-galli [3] = assay: Test Example 8: herbicidal effect test by stem and leaf treatment in upland field (low dose); conditions: Echinochloa crus-galli; 7.5 g per 10 ares; sprayed seven days after sowing, upland soil; 14 days after application; read-out: weed inhibition rate
Digitaria ciliaris [4] = assay: as above; conditions: Digitaria ciliaris; 7.5 g per 10 ares; sprayed seven days after sowing, upland soil; 14 days after application; read-out: weed inhibition rate
Echinochloa crus-galli [5] = assay: Test Example 3: herbicidal effect test by soil application in upland field; conditions: Echinochloa crus-galli, 120 g per 10 ares, sprayed one day after sowing, 14 days after application, read-out: weed inhibition rate
Summary of the method: (§2)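 Pre-emergence test: seeds mixed into top 1 cm of alluvial loam upland soil in pots; emulsifiable concentrate diluted in water sprayed on soil one day after sowing at 100 L/10 a, 120 g a.i./10 a. Weed inhibition rate (%) scored at 14 days, in duplicate.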

Digitaria ciliaris [6] = assay: as above; conditions: Digitaria ciliaris, 120 g per 10 ares, sprayed one day after sowing, 14 days after application, read-out: weed inhibition rate
Summary of the method: as §2

[7] = test system: Echinochloa crus-galli var. formosensis; assay: Test Example 6: herbicidal effect test by application during growth period of paddy rice (low dose); conditions: Echinochloa crus-galli; 7.5 g per 10 ares; applied seven days after sowing, flooded pots; 14 days after application; read-out: weed inhibition rate
Summary of the method: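 Low-dose water application, 7.5 g a.i. per 10 ares, given by dropper into flooded pots (about 3 cm depth) 7 days after sowing of 30 weed seeds each at 0–1 cm. Evaluation of inhibition (%) took place 14 days later, duplicate per rate.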

Digitaria ciliaris [8] = assay: Test Example 4: herbicidal effect test by stem and leaf treatment in upland field; conditions: Digitaria ciliaris; 120 g per 10 ares; sprayed seven days after sowing, upland soil; 14 days after application; read-out: weed inhibition rate
Echinochloa crus-galli [9] = assay: as above; conditions: Echinochloa crus-galli; 120 g per 10 ares; sprayed seven days after sowing, upland soil; 14 days after application; read-out: weed inhibition rate
[10] = test system: Echinochloa crus-galli var. formosensis; assay: Test Example 1: herbicidal effect test by soil application in paddy rice; conditions: Echinochloa crus-galli, soil, 336 h; 120 g active ingredient per 10 ares; applied immediately after sowing, flooded pots; 14 days after application; read-out: weed inhibition rate
Summary of the method: (§3)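 Paddy soil in Wagner pots (1/10,000 acre), fertilized and puddled; 30 seeds per species sown at 0–1 cm, flooded to ~3 cm, greenhouse. Water-diluted emulsifiable concentrate dropped onto flooded pots right after sowing at 120 g active ingredient per 10 ares.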

Scirpus juncoides [11] = assay: as above; conditions: Schoenoplectiella juncoides, soil, 336 h; 120 g active ingredient per 10 ares; applied immediately after sowing, flooded pots; 14 days after application; read-out: weed inhibition rate
Summary of the method: as §3

[12] = test system: Echinochloa crus-galli var. formosensis; assay: Test Example 5: herbicidal effect test by soil application in paddy rice (low dose); conditions: Echinochloa crus-galli, soil, 336 h; 7.5 g per 10 ares; applied immediately after sowing, flooded pots; 14 days after application; read-out: weed inhibition rate
Summary of the method: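 Pre-emergence paddy test: seeds sown 0–1 cm (30 each), pots flooded ~3 cm, greenhouse. EC dilution dropped into water right after sowing, 7.5 g a.i./10 a. Duplicate pots; weed inhibition rate (%) by formula, day 14.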

[13] = test system: Echinochloa crus-galli var. formosensis; assay: Test Example 2: herbicidal effect test by application during growth period of paddy rice; conditions: Echinochloa crus-galli; 120 g per 10 ares; applied seven days after sowing, flooded pots; 14 days after application; read-out: weed inhibition rate
Summary of the method: (§4)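 Flooded paddy pot test, greenhouse. Seeds 30/species, 0–1 cm depth, water ~3 cm. EC diluted in water, dropper-applied 7 d post-sowing at 120 g a.i./10 a. Inhibition rate (%) read 14 d after treatment; n=2.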

Scirpus juncoides [14] = assay: as above; conditions: Schoenoplectiella juncoides; 120 g per 10 ares; applied seven days after sowing, flooded pots; 14 days after application; read-out: weed inhibition rate
Summary of the method: as §4

CC(C)[C@@]12C[C@H](OCc3c(F)cccc3F)[C@@](C)(C[C@H]1I)O2 [1-1119, (1R,2S,4S,5R)-2-[(2,6-difluorophenyl)methoxy]-5-iodo-1-methyl-4-isopropyl-7-oxabicyclo[2.2.1]heptane]
≥ 80%: inhibition at 75 g/ha (Echinochloa crus-galli [1]) | inhibition at 75 g/ha (Digitaria ciliaris [2]) | inhibition at 75 g/ha (Echinochloa crus-galli [3]) | inhibition at 75 g/ha (Digitaria ciliaris [4]) | inhibition at 1200 g/ha (Echinochloa crus-galli [5]) | inhibition at 1200 g/ha (Digitaria ciliaris [6]) | inhibition at 75 g/ha [7] | inhibition at 1200 g/ha (Digitaria ciliaris [8]) | inhibition at 1200 g/ha (Echinochloa crus-galli [9]) | pest or weed control at 1200 g/ha [10] | pest or weed control at 1200 g/ha (Scirpus juncoides [11]) | inhibition at 75 g/ha [12] | inhibition at 1200 g/ha [13] | inhibition at 1200 g/ha (Scirpus juncoides [14])

CC(C)=CCO[C@@H]1C[C@]2(C(C)C)O[C@@]1(C)C[C@@H]2Cl [1-612, (1R,2S,4S,5R)-2-chloro-1-isopropyl-4-methyl-5-(3-methylbut-2-enoxy)-7-oxabicyclo[2.2.1]heptane]
≥ 80%: inhibition at 75 g/ha (Echinochloa crus-galli [1]) | inhibition at 75 g/ha (Digitaria ciliaris [2]) | inhibition at 75 g/ha (Echinochloa crus-galli [3]) | inhibition at 75 g/ha (Digitaria ciliaris [4]) | inhibition at 1200 g/ha (Echinochloa crus-galli [5]) | inhibition at 1200 g/ha (Digitaria ciliaris [6]) | inhibition at 75 g/ha [7] | inhibition at 1200 g/ha (Digitaria ciliaris [8]) | inhibition at 1200 g/ha (Echinochloa crus-galli [9]) | pest or weed control at 1200 g/ha [10] | pest or weed control at 1200 g/ha (Scirpus juncoides [11]) | inhibition at 75 g/ha [12] | inhibition at 1200 g/ha [13] | inhibition at 1200 g/ha (Scirpus juncoides [14])

CC(C)C12CC(OCc3ccccc3)C(C)(CC1I)O2 (stereo not shown) [1-1408, 5-iodo-1-methyl-2-phenylmethoxy-4-isopropyl-7-oxabicyclo[2.2.1]heptane]
≥ 80%: inhibition at 75 g/ha (Echinochloa crus-galli [1]) | inhibition at 75 g/ha (Digitaria ciliaris [2]) | inhibition at 75 g/ha (Echinochloa crus-galli [3]) | inhibition at 75 g/ha (Digitaria ciliaris [4]) | inhibition at 1200 g/ha (Echinochloa crus-galli [5]) | inhibition at 1200 g/ha (Digitaria ciliaris [6]) | inhibition at 75 g/ha [7] | inhibition at 1200 g/ha (Digitaria ciliaris [8]) | inhibition at 1200 g/ha (Echinochloa crus-galli [9]) | pest or weed control at 1200 g/ha [10] | pest or weed control at 1200 g/ha (Scirpus juncoides [11]) | inhibition at 75 g/ha [12] | inhibition at 1200 g/ha [13] | inhibition at 1200 g/ha (Scirpus juncoides [14])

CC(C)C12CC(OCc3ccccn3)C(C)(CC1Cl)O2 (stereo not shown) [1-1320, 2-[(5-chloro-4-isopropyl-1-methyl-7-oxabicyclo[2.2.1]heptan-2-yl)oxymethyl]pyridine]
≥ 80%: inhibition at 75 g/ha (Echinochloa crus-galli [1]) | inhibition at 75 g/ha (Digitaria ciliaris [2]) | inhibition at 75 g/ha (Echinochloa crus-galli [3]) | inhibition at 75 g/ha (Digitaria ciliaris [4]) | inhibition at 1200 g/ha (Echinochloa crus-galli [5]) | inhibition at 1200 g/ha (Digitaria ciliaris [6]) | inhibition at 75 g/ha [7] | inhibition at 1200 g/ha (Digitaria ciliaris [8]) | inhibition at 1200 g/ha (Echinochloa crus-galli [9]) | pest or weed control at 1200 g/ha [10] | pest or weed control at 1200 g/ha (Scirpus juncoides [11]) | inhibition at 75 g/ha [12] | inhibition at 1200 g/ha [13] | inhibition at 1200 g/ha (Scirpus juncoides [14])

CC(C)[C@]12C[C@@H](OCc3ccccc3F)[C@](C)(C[C@@H]1C)O2 (racemic) [1-1555, (1SR,2RS,4RS,5SR)-2-[(2-fluorophenyl)methoxy]-1,5-dimethyl-4-isopropyl-7-oxabicyclo[2.2.1]heptane]
≥ 80%: inhibition at 75 g/ha (Echinochloa crus-galli [1]) | inhibition at 75 g/ha (Digitaria ciliaris [2]) | inhibition at 75 g/ha (Echinochloa crus-galli [3]) | inhibition at 75 g/ha (Digitaria ciliaris [4]) | inhibition at 1200 g/ha (Echinochloa crus-galli [5]) | inhibition at 1200 g/ha (Digitaria ciliaris [6]) | inhibition at 75 g/ha [7] | inhibition at 1200 g/ha (Digitaria ciliaris [8]) | inhibition at 1200 g/ha (Echinochloa crus-galli [9]) | pest or weed control at 1200 g/ha [10] | pest or weed control at 1200 g/ha (Scirpus juncoides [11]) | inhibition at 75 g/ha [12] | inhibition at 1200 g/ha [13] | inhibition at 1200 g/ha (Scirpus juncoides [14])
